Source: patent US20230210999A1, “TARGETED PROTEASE DEGRADATION (TED) PLATFORM” (EUBULUS BIOTHERAPEUTICS INC., priority 2020, published 2023)
Like-named read-outs stand apart in the source and are kept apart here.

Legend:
[1] = tested on: Daudi cells; experiment: Cell proliferation experiment, Daudi; type: cell-based, human; settings: Homo sapiens, Daudi, 72 h, 72 h, read-out: Inhibitory activity IC50 of tested compounds on Daudi cells
How it was run: (§1)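 Cells were passaged at least twice, harvested in log phase and plated in 96 wells. Compound in complete medium was added at 5-fold gradient concentrations, duplicates per concentration. After 72 h culture, Alamar blue fluorescence was measured and IC50 fitted.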

[2] = tested on: U-87MG cells; experiment: Cell proliferation experiment, U-87MG; type: cell-based; settings: Homo sapiens, 72 h, read-out: Inhibitory activity IC50 of tested compounds on U-87MG cells
Description: (§2) Reagents: RPMI-1640 medium, McCoy's 5A medium, IMDM medium, MEM medium, L-15 medium, fetal bovine serum. Penicillin-Streptomycin double antibody, trypsin, etc., 2-mercaptoethanol, NEAA, pyruvate, etc.
(§3) The cells were cultured in conventional ways, and the cells should be passed at least 2 generations before plating. Cells at the logarithmic growth phase were collected, prepared into single cell suspensions and counted. The concentration of cells was adjusted to the desired concentration, and cells were inoculated into a 96-well cell culture plate at 100 μl per well. 100 μL of complete medium of the test compound were added to each well, set up 2 duplicate wells for each concentration, and diluted with a 5-fold gradient, and continued to culture for 72 h. All cells were subjected to IC50 test for corresponding samples. The experimental results are shown in Test Example 4.
(§4) The fluorescence intensity of each well was detected using the Alarm blue method, and IC50 was calculated.
(§5) IC50 was calculated according to the following formula:
(§6) Y=Max+(Min−Max)/[1+(X/IC50)×Slope]
(§7) wherein Min, Max and Slope represent the minimum, maximum and slope respectively.

[3] = tested on: NCIH82 cells; experiment: Cell proliferation experiment, NCI-H82; type: cell-based, human; settings: Homo sapiens, NCI-H82, 72 h, read-out: Inhibitory activity IC50 of tested compounds on NCIH82 cells
How it was run: as §1

[4] = tested on: HT-29 cells; experiment: Cell proliferation experiment, HT-29; type: cell-based; settings: Homo sapiens, read-out: Inhibitory activity IC50 of tested compounds on HT-29 cells
Description: as §2, §3, §4, §5, §6, §7

[5] = tested on: MV4;11 cells; experiment: Cell proliferation experiment (Alamar blue, 72 h), MV4;11; type: cell-based, human; settings: Homo sapiens, MV4-11, 72 h, read-out: Inhibitory activity IC50 of tested compounds on MV4;11 cells
How it was run: as §1

IC50 ([1]; Daudi cells) [µM] | IC50 ([2]; U-87MG cells) [µM] | IC50 ([3]; NCIH82 cells, 72 h) [µM] | IC50 ([4]; HT-29 cells, 72 h) [µM] | IC50 ([5]; MV4;11 cells, 72 h) [µM] | Compound | IC50 [1] [µM] | IC50 ([2]; U-87 MG) [µM] | IC50 [3] [µM] | IC50 ([4]; HT-29, 72 h) [µM] | IC50 [5] [µM]
> 1 | > 1 | > 1 | > 1 | 0.1 to 1 | CC[C@@H]1C(=O)N(C)c2cnc(Nc3ccc(C(=O)NCCCNCCOCCCC#Cc4cccc5c4CN(C4CCC(=O)NC4=O)C5=O)cc3OC)nc2N1C1CCCC1 (stereo partly drawn) [Compound 881] | – | – | – | – | –
0.1 to 1 | ≤ 0.1 | ≤ 1 | 0.3 to 1 | ≤ 0.1 | CC[C@@H]1C(=O)N(C)c2cnc(Nc3ccc(C(=O)NCCCOCCOCCCNCCC#Cc4cccc5c4CN(C4CCC(=O)NC4=O)C5=O)cc3OC)nc2N1C1CCCC1 (stereo partly drawn) [Compound 882] | – | – | – | – | –
0.1 to 1 | 0.1 to 0.5 | > 1 | > 1 | ≤ 0.1 | CC[C@@H]1C(=O)N(C)c2cnc(Nc3ccc(C(=O)NCCCNCCOCCC#Cc4cccc5c4CN(C4CCC(=O)NC4=O)C5=O)cc3OC)nc2N1C1CCCC1 (stereo partly drawn) [Compound 885] | – | – | – | – | –
0.1 to 1 | ≤ 0.1 | > 1 | > 1 | ≤ 0.1 | CC[C@@H]1C(=O)N(C)c2cnc(Nc3ccc(C(=O)NCCCN(C)CCOCCC#Cc4cccc5c4CN(C4CCC(=O)NC4=O)C5=O)cc3OC)nc2N1C1CCCC1 (stereo partly drawn) [Compound 886] | – | – | – | – | –
0.1 to 1 | 0.1 to 0.5 | > 1 | > 1 | ≤ 0.1 | CC[C@@H]1C(=O)N(C)c2cnc(Nc3ccc(C(=O)NCCOCCOCCCNCCC#Cc4cccc5c4CN(C4CCC(=O)NC4=O)C5=O)cc3OC)nc2N1C1CCCC1 (stereo partly drawn) [Compound 894] | – | – | – | – | –
> 1 | 0.1 to 0.5 | > 1 | > 1 | ≤ 0.1 | CC[C@@H]1C(=O)N(C)c2cnc(Nc3ccc(C(=O)NCCCNCCOCCOCCC#Cc4cccc5c4CN(C4CCC(=O)NC4=O)C5=O)cc3OC)nc2N1C1CCCC1 (stereo partly drawn) [Compound 898] | – | – | – | – | –
0.1 to 1 | 0.1 to 0.5 | ≤ 1 | 0.3 to 1 | ≤ 0.1 | CC[C@@H]1C(=O)N(C)c2cnc(Nc3ccc(C(=O)NC4CCN(CCCOCCCNCCC#Cc5cccc6c5CN(C5CCC(=O)NC5=O)C6=O)CC4)cc3OC)nc2N1C1CCCC1 (stereo partly drawn) [Compound 906] | – | – | – | – | –
≤ 0.1 | 0.1 to 0.5 | ≤ 1 | 0.3 to 1 | ≤ 0.1 | CC[C@@H]1C(=O)N(C)c2cnc(Nc3ccc(C(=O)NC4CCN(CCCNCCOCCCC#Cc5cccc6c5CN(C5CCC(=O)NC5=O)C6=O)CC4)cc3OC)nc2N1C1CCCC1 (stereo partly drawn) [Compound 907] | – | – | – | – | –
≤ 0.1 | 0.1 to 0.5 | ≤ 1 | 0.3 to 1 | ≤ 0.1 | CC[C@@H]1C(=O)N(C)c2cnc(Nc3ccc(C(=O)NC4CCN(CCOCCCNCCC#Cc5cccc6c5CN(C5CCC(=O)NC5=O)C6=O)CC4)cc3OC)nc2N1C1CCCC1 (stereo partly drawn) [Compound 908] | – | – | – | – | –
≤ 0.1 | ≤ 0.1 | ≤ 1 | ≤ 0.3 | ≤ 0.1 | CC[C@@H]1C(=O)N(C)c2cnc(Nc3ccc(C(=O)NC4CCN(CCCCNCCC#Cc5cccc6c5CN(C5CCC(=O)NC5=O)C6=O)CC4)cc3OC)nc2N1C1CCCC1 (stereo partly drawn) [Compound 909] | – | – | – | – | –

Second part, the compound before the results:

Compound | IC50 ([1]; Daudi cells) [µM] | IC50 ([2]; U-87MG cells) [µM] | IC50 ([3]; NCIH82 cells, 72 h) [µM] | IC50 ([4]; HT-29 cells, 72 h) [µM] | IC50 ([5]; MV4;11 cells, 72 h) [µM] | IC50 [1] [µM] | IC50 ([2]; U-87 MG) [µM] | IC50 [3] [µM] | IC50 ([4]; HT-29, 72 h) [µM] | IC50 [5] [µM]
CC[C@@H]1C(=O)N(C)c2cnc(Nc3ccc(C(=O)NC4CCN(CCOCCNCCC(=O)NC(C(=O)N5C[C@H](O)C[C@H]5C(=O)NCc5ccc(-c6scnc6C)cc5)C(C)(C)C)CC4)cc3OC)nc2N1C1CCCC1 (stereo partly drawn) [Compound 858] | > 1 | > 1 | > 1 | > 1 | > 1 | – | – | – | – | –
CC[C@@H]1C(=O)N(C)c2cnc(Nc3ccc(C(=O)NC4CCN(CCOCCNCC(=O)NC(C(=O)N5C[C@H](O)C[C@H]5C(=O)NCc5ccc(-c6scnc6C)cc5)C(C)(C)C)CC4)cc3OC)nc2N1C1CCCC1 (stereo partly drawn) [Compound 859] | – | – | – | – | – | > 1 | > 1 | > 1 | > 1 | 0.1 to 1
CC[C@@H]1C(=O)N(C)c2cnc(Nc3ccc(C(=O)NC4CCN(CCOCC[C@@H](N)C(=O)Nc5cccc6c5CN(C5CCC(=O)NC5=O)C6=O)CC4)cc3OC)nc2N1C1CCCC1 (stereo partly drawn) [Compound 863] | 0.1 to 1 | > 1 | ≤ 1 | > 1 | 0.1 to 1 | – | – | – | – | –
CC[C@@H]1C(=O)N(C)c2cnc(Nc3ccc(C(=O)NC4CCN(CCOCCO)CC4)cc3OC)nc2N1C1CCCC1 [Compound 864] | ≤ 0.1 | ≤ 0.1 | ≤ 1 | ≤ 0.3 | ≤ 0.1 | – | – | – | – | –
CC[C@@H]1C(=O)N(C)c2cnc(Nc3ccc(C(=O)NC4CCN(CCO)CC4)cc3OC)nc2N1C1CCCC1 [Compound 865] | ≤ 0.1 | ≤ 0.1 | ≤ 1 | ≤ 0.3 | ≤ 0.1 | – | – | – | – | –
CC[C@@H]1C(=O)N(C)c2cnc(Nc3ccc(C(=O)NC4CCN(CCOCCN)CC4)cc3OC)nc2N1C1CCCC1 [Compound 866] | ≤ 0.1 | 0.1 to 0.5 | ≤ 1 | ≤ 0.3 | ≤ 0.1 | – | – | – | – | –
CC[C@@H]1C(=O)N(C)c2cnc(Nc3ccc(C(=O)NC4CCN(CCOCCNC5(C(=O)Nc6cccc7c6CN(C6CCC(=O)NC6=O)C7=O)CC5)CC4)cc3OC)nc2N1C1CCCC1 (stereo partly drawn) [Compound 867] | ≤ 0.1 | 0.5 to 1 | ≤ 1 | 0.3 to 1 | ≤ 0.1 | – | – | – | – | –
CC[C@@H]1C(=O)N(C)c2cnc(Nc3ccc(C(=O)NC4CCN(CCOCCN5CC(Nc6cccc7c6C(=O)N(C6CCC(=O)NC6=O)C7=O)C5)CC4)cc3OC)nc2N1C1CCCC1 (stereo partly drawn) [Compound 868] | 0.1 to 1 | 0.5 to 1 | ≤ 1 | > 1 | 0.1 to 1 | – | – | – | – | –
CC[C@@H]1C(=O)N(C)c2cnc(Nc3ccc(C(=O)NC4CCN(CCOCCNCC(O)C#Cc5cccc6c5CN(C5CCC(=O)NC5=O)C6=O)CC4)cc3OC)nc2N1C1CCCC1 (stereo partly drawn) [Compound 869] | 0.1 to 1 | 0.1 to 0.5 | ≤ 1 | > 1 | ≤ 0.1 | – | – | – | – | –
CC[C@@H]1C(=O)N(C)c2cnc(Nc3ccc(C(=O)NC4CCN(CCOC[C@@H](N)C(=O)Nc5cccc6c5CN(C5CCC(=O)NC5=O)C6=O)CC4)cc3OC)nc2N1C1CCCC1 (stereo partly drawn) [Compound 870] | > 1 | > 1 | > 1 | > 1 | 0.1 to 1 | – | – | – | – | –
CC[C@@H]1C(=O)N(C)c2cnc(Nc3ccc(C(=O)NC4CCN(CCOCCOC[C@H](N)C(=O)Nc5cccc6c5CN(C5CCC(=O)NC5=O)C6=O)CC4)cc3OC)nc2N1C1CCCC1 (stereo partly drawn) [Compound 871] | > 1 | > 1 | ≤ 1 | > 1 | 0.1 to 1 | – | – | – | – | –
CC[C@@H]1C(=O)N(C)c2cnc(Nc3ccc(C(=O)NC4CCN(CCOCCOC[C@@H](N)C(=O)Nc5cccc6c5CC(C5CCC(=O)NC5=O)C6=O)CC4)cc3OC)nc2N1C1CCCC1 (stereo partly drawn) [Compound 872] | > 1 | > 1 | ≤ 1 | > 1 | 0.1 to 1 | – | – | – | – | –
CC[C@@H]1C(=O)N(C)c2cnc(Nc3ccc(C(=O)NC4CCN(CCOCCNCC#Cc5cccc6c5CN(C5CCC(=O)NC5=O)C6=O)CC4)cc3OC)nc2N1C1CCCC1 (stereo partly drawn) [Compound 873] | 0.1 to 1 | 0.1 to 0.5 | ≤ 1 | ≤ 0.3 | ≤ 0.1 | – | – | – | – | –
CC[C@@H]1C(=O)N(C)c2cnc(Nc3ccc(C(=O)NC4CCN(C[C@H](N)COCC#Cc5cccc6c5CN(C5CCC(=O)NC5=O)C6=O)CC4)cc3OC)nc2N1C1CCCC1 (stereo partly drawn) [Compound 876] | 0.1 to 1 | 0.1 to 0.5 | > 1 | > 1 | ≤ 0.1 | – | – | – | – | –
